Laboratory results published in patent US20220323406A1, “METHODS AND COMPOSITIONS FOR DIFFERENTIATING STEM CELLS” (Massachusetts Institute of Technology, priority 2019, published 2022).

Key:
[1] = system: ENR+CD organoids (ISC to Paneth cell differentiation); experiment: Primary screen: basal (non-stimulated) lysozyme secretion LYZ.NS, 2.5-D 384-well ENR+CD organoid differentiation; type: cell-based, mouse
Excerpt: (§1) High-throughput screening.

[2] = system: ENR+CD organoids (ISC to Paneth cell differentiation); experiment: Primary screen: CCh-stimulated lysozyme secretion LYZ.S, 2.5-D 384-well ENR+CD organoid differentiation; type: cell-based, mouse; conditions: primary screen
Excerpt: as §1

ENR+CD organoids = experiment: Primary screen: ATP (CellTiter-Glo 3D, CTG) cell number/viability, 2.5-D 384-well ENR+CD organoids;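 note: compounds given at plating and again on day 3 over a 6-day differentiation from ENR+CV stem-cell-enriched precursors, ATP measured on day 6, plate median as control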
[3] = primary screen, standard z score, dose 0.08 uM
[4] = primary screen, standard z score, dose 0.40 uM
[5] = primary screen, standard z score, dose 2.00 uM
[6] = primary screen, standard z score, dose 10.00 uM
[7] = primary screen, dose 0.08 uM, FC relative to plate median
[8] = primary screen, dose 0.08 uM, standard z score
[9] = primary screen, dose 0.40 uM, FC relative to plate median
[10] = primary screen, dose 0.40 uM, standard z score
[11] = primary screen, dose 2.00 uM, FC relative to plate median
[12] = primary screen, dose 2.00 uM, standard z score
[13] = primary screen, dose 10.00 uM, standard z score
[14] = primary screen; dose 0.08 uM; FC vs plate median
[15] = primary screen; dose 0.40 uM; FC vs plate median
[16] = primary screen; dose 2.00 uM; FC vs plate median
[17] = primary screen; dose 10.00 uM; FC vs plate median

## VU 0364439
[1]; primary screen, dose 0.08 uM
  Dose.FC.LYZ.NS: 0.082 log2 fold change
  Z.LYZ.NS (standard z score): 0.715
[1]; primary screen, dose 0.40 uM
  Dose.FC.LYZ.NS: 0.011 log2 fold change
  Z.LYZ.NS (standard z score): 0.099
[1]; primary screen, dose 2.00 uM
  Dose.FC.LYZ.NS: 0.010 log2 fold change
  Z.LYZ.NS (standard z score): 0.089
[1]; primary screen, dose 10.00 uM
  Dose.FC.LYZ.NS: −0.055 log2 fold change
  Z.LYZ.NS (standard z score): −0.476
[2]; dose 0.08 uM
  Dose.FC.LYZ.S: 0.108 log2 fold change
[2]; dose 0.40 uM
  Dose.FC.LYZ.S: 0.124 log2 fold change
[2]; dose 2.00 uM
  Dose.FC.LYZ.S: −0.043 log2 fold change
[2]; dose 10.00 uM
  Dose.FC.LYZ.S: −0.038 log2 fold change
ENR+CD organoids; primary screen, dose 0.08 uM
  Dose.FC.CTG: 0.024 log2 fold change
  Z.CTG (standard z score): 0.058
ENR+CD organoids; primary screen, dose 0.40 uM
  Dose.FC.CTG: −0.121 log2 fold change
  Z.CTG (standard z score): −0.289
ENR+CD organoids; primary screen, dose 2.00 uM
  Dose.FC.CTG: −0.258 log2 fold change
  Z.CTG (standard z score): −0.616
ENR+CD organoids; primary screen, dose 10.00 uM
  Dose.FC.CTG: 0.009 log2 fold change
  Z.CTG (standard z score): 0.022

## Cc1ccc2c(=O)c3cccc(CC(=O)O)c3oc2c1C [DMXAA (Vadimezan)]
[1]; primary screen, dose 0.08 uM
  Dose.FC.LYZ.NS: −0.007 log2 fold change
[1]; primary screen, dose 0.40 uM
  Dose.FC.LYZ.NS: −0.036 log2 fold change
[1]; primary screen, dose 2.00 uM
  Dose.FC.LYZ.NS: −0.038 log2 fold change
[1]; primary screen, dose 10.00 uM
  Dose.FC.LYZ.NS: −0.031 log2 fold change
[1]; [3]
  Z.LYZ.NS: −0.065
[1]; [4]
  Z.LYZ.NS: −0.317
[1]; [5]
  Z.LYZ.NS: −0.334
[1]; [6]
  Z.LYZ.NS: −0.271
[2]; dose 0.08 uM
  Dose.FC.LYZ.S: −0.091 log2 fold change
[2]; dose 0.40 uM
  Dose.FC.LYZ.S: −0.009 log2 fold change
[2]; dose 2.00 uM
  Dose.FC.LYZ.S: −0.094 log2 fold change
[2]; dose 10.00 uM
  Dose.FC.LYZ.S: −0.118 log2 fold change
ENR+CD organoids; primary screen, dose 0.08 uM
  Dose.FC.CTG: −0.568 log2 fold change
ENR+CD organoids; primary screen, dose 0.40 uM
  Dose.FC.CTG: −0.629 log2 fold change
ENR+CD organoids; primary screen, dose 2.00 uM
  Dose.FC.CTG: −0.477 log2 fold change
ENR+CD organoids; primary screen, dose 10.00 uM
  Dose.FC.CTG: −0.230 log2 fold change
ENR+CD organoids; [3]
  Z.CTG: −1.357
ENR+CD organoids; [4]
  Z.CTG: −1.502
ENR+CD organoids; [5]
  Z.CTG: −1.139
ENR+CD organoids; [6]
  Z.CTG: −0.550

## O=C(O)CCc1ccc(NCc2cccc(Oc3ccccc3)c2)cc1 [GW9508]
[1]; primary screen, dose 0.08 uM
  Dose.FC.LYZ.NS (log2 fold change): 0.075
  Z.LYZ.NS (standard z score): 0.650
[1]; primary screen, dose 0.40 uM
  Dose.FC.LYZ.NS (log2 fold change): 0.019
  Z.LYZ.NS (standard z score): 0.169
[1]; primary screen, dose 2.00 uM
  Dose.FC.LYZ.NS (log2 fold change): −0.011
  Z.LYZ.NS (standard z score): −0.092
[1]; primary screen, dose 10.00 uM
  Dose.FC.LYZ.NS (log2 fold change): −0.040
  Z.LYZ.NS (standard z score): −0.350
[2]; dose 0.08 uM
  Dose.FC.LYZ.S (log2 fold change): 0.067
[2]; dose 0.40 uM
  Dose.FC.LYZ.S (log2 fold change): 0.049
[2]; dose 2.00 uM
  Dose.FC.LYZ.S (log2 fold change): 0.000
[2]; dose 10.00 uM
  Dose.FC.LYZ.S (log2 fold change): −0.045
ENR+CD organoids; primary screen, dose 0.08 uM
  Dose.FC.CTG (log2 fold change): 0.063
  Z.CTG (standard z score): 0.151
ENR+CD organoids; primary screen, dose 0.40 uM
  Dose.FC.CTG (log2 fold change): 0.174
  Z.CTG (standard z score): 0.417
ENR+CD organoids; primary screen, dose 2.00 uM
  Dose.FC.CTG (log2 fold change): −0.001
  Z.CTG (standard z score): −0.003
ENR+CD organoids; primary screen, dose 10.00 uM
  Dose.FC.CTG (log2 fold change): −0.059
  Z.CTG (standard z score): −0.140

## CNC(=O)c1cc(Oc2ccc(NC(=O)Nc3ccc(Cl)c(C(F)(F)F)c3)cc2)ccn1 [Sorafenib]
[1]; [7]
  Dose.FC.LYZ.NS: 0.052 log2 fold change
[1]; [8]
  Z.LYZ.NS: 0.457
[1]; [9]
  Dose.FC.LYZ.NS: 0.060 log2 fold change
[1]; [10]
  Z.LYZ.NS: 0.520
[1]; [11]
  Dose.FC.LYZ.NS: 0.095 log2 fold change
[1]; [12]
  Z.LYZ.NS: 0.830
[1]; primary screen, dose 10.00 uM, FC relative to plate median
  Dose.FC.LYZ.NS: −0.021 log2 fold change
[1]; [13]
  Z.LYZ.NS: −0.180
[2]; dose 0.08 uM, FC relative to plate median
  Dose.FC.LYZ.S: 0.124 log2 fold change
[2]; dose 0.40 uM, FC relative to plate median
  Dose.FC.LYZ.S: 0.164 log2 fold change
[2]; dose 2.00 uM, FC relative to plate median
  Dose.FC.LYZ.S: 0.014 log2 fold change
[2]; dose 10.00 uM, FC relative to plate median
  Dose.FC.LYZ.S: −0.062 log2 fold change
ENR+CD organoids; [7]
  Dose.FC.CTG: 0.032 log2 fold change
ENR+CD organoids; [9]
  Dose.FC.CTG: 0.165 log2 fold change
ENR+CD organoids; [11]
  Dose.FC.CTG: −0.206 log2 fold change

## CCc1c(C(=O)NCCc2ccc(N3CCCCC3)cc2)[nH]c2ccc(Cl)cc12 [Org 27569]
[1]; [8]
  Z.LYZ.NS: 1.060
[1]; [10]
  Z.LYZ.NS: 0.445
[1]; [12]
  Z.LYZ.NS: 0.683
[1]; [13]
  Z.LYZ.NS: 0.248
[1]; [14]
  Dose.FC.LYZ.NS: 0.122 log2 fold change
[1]; [15]
  Dose.FC.LYZ.NS: 0.051 log2 fold change
[1]; [16]
  Dose.FC.LYZ.NS: 0.078 log2 fold change
[1]; [17]
  Dose.FC.LYZ.NS: 0.029 log2 fold change
[2]; dose 0.08 uM, FC vs plate median
  Dose.FC.LYZ.S: 0.174 log2 fold change
[2]; dose 0.40 uM, FC vs plate median
  Dose.FC.LYZ.S: 0.032 log2 fold change
[2]; dose 2.00 uM, FC vs plate median
  Dose.FC.LYZ.S: 0.059 log2 fold change
[2]; dose 10.00 uM, FC vs plate median
  Dose.FC.LYZ.S: 0.001 log2 fold change
ENR+CD organoids; [8]
  Z.CTG: 0.663
ENR+CD organoids; [10]
  Z.CTG: 0.173
ENR+CD organoids; [12]
  Z.CTG: 0.865
ENR+CD organoids; [13]
  Z.CTG: 0.646
ENR+CD organoids; [14]
  Dose.FC.CTG: 0.278 log2 fold change
ENR+CD organoids; [15]
  Dose.FC.CTG: 0.072 log2 fold change
ENR+CD organoids; [16]
  Dose.FC.CTG: 0.362 log2 fold change
ENR+CD organoids; [17]
  Dose.FC.CTG: 0.270 log2 fold change
